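A five-concentration, 48-hour dose response in 96-well plates underlies each endpoint, interpolated linearly between surrounding concentrations. GI50: concentration for 50% inhibition of growth. TGI marks complete inhibition of growth.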
Experiments:
Assay in all cases: DTP human tumour cell line panel, 48 h
SF-295 CNS = test system: SF-295 CNS
SW-620 colon = test system: SW-620 colon
NCI-H226 lung = test system: NCI-H226 lung
SK-MEL-5 melanoma = test system: SK-MEL-5 melanoma
SNB-75 CNS = test system: SNB-75 CNS
RPMI-8226 leukemia = test system: RPMI-8226 leukemia
HOP-62 NSCLC = test system: HOP-62 NSCLC
ACHN renal = test system: ACHN renal
RXF 393 renal = test system: RXF 393 renal
HCT-116 colon = test system: HCT-116 colon

SMILES	GI50 (SF-295 CNS) [µM]	TGI (SF-295 CNS) [µM]	GI50 (SW-620 colon) [µM]	TGI (SW-620 colon) [µM]	GI50 (NCI-H226 lung) [µM]	TGI (NCI-H226 lung) [µM]	GI50 (SK-MEL-5 melanoma) [µM]	TGI (SK-MEL-5 melanoma) [µM]	GI50 (SNB-75 CNS) [µM]	TGI (SNB-75 CNS) [µM]	GI50 (RPMI-8226 leukemia) [µM]	TGI (RPMI-8226 leukemia) [µM]	GI50 (HOP-62 NSCLC) [µM]	TGI (HOP-62 NSCLC) [µM]	GI50 (ACHN renal) [µM]	TGI (ACHN renal) [µM]	GI50 (RXF 393 renal) [µM]	TGI (RXF 393 renal) [µM]	GI50 (HCT-116 colon) [µM]	TGI (HCT-116 colon) [µM]
COC(=O)/C=C1\S/C(=N\NC(=O)c2cc3ccc2/C=C\c2ccc(cc2)/C=C\3)N(c2ccccc2)C1=O	2.07	4.19	1.85	3.66	4.38	25.5	7.56	> 100	5.44	> 100	2.15	5.69	2.68	6.97	1.78	3.29	1.52	3.86	1.79	3.67
O=C(CCc1nc(=S)[nH][nH]1)Nc1cc(Cl)c(Cl)cc1Cl	–	> 100	–	> 100	–	> 100	–	> 100	–	> 100	–	> 100	–	> 100	–	> 100	–	> 100	–	> 100
Cc1cc(-c2nc(C(=O)Nc3cc4oc(N5CCOCC5)nc4nc3N3CC[C@@H](O)C3)co2)ccn1	87.5	> 100	28.4	> 100	> 100	> 100	45.7	> 100	9.41	69.2	25.8	> 100	30.6	> 100	17.9	93.7	17.9	> 100	30.1	> 100
CN(C)N=Nc1ccc(C(N)=O)cc1	–	> 100	–	> 100	–	> 100	–	> 100	–	> 100	–	> 100	–	> 100	–	> 100	–	> 100	–	> 100
COc1cccc(-c2cc(-c3cccc(NS(C)(=O)=O)c3)nc(N)c2C#N)c1O	0.0431	0.752	0.0904	> 100	0.372	> 100	0.0747	3.93	0.0797	5.15	0.268	11.8	0.135	> 100	0.846	> 100	0.104	1.39	0.0783	> 100
CCC(=O)[C@H](C)[C@@H](OC(=O)[C@H](C)CC)[C@H](C)[C@H]1OC(CC)=C(C)C(=O)[C@@H]1C	21.8	43.7	24.7	62.5	16	31.6	15.3	28.8	31.8	80.3	10.1	35.1	21.2	48.1	30	> 100	21.5	46.4	9.98	72.4
COc1cc2c(cc1OCCCCN1CCN(CC(=O)Nc3ccc(Cl)cc3C(=O)c3ccccc3Cl)CC1)N=CC1CCCN1C2=O (stereo not given)	0.237	0.509	0.238	0.726	0.483	1.44	0.183	0.333	0.223	0.572	0.0573	0.173	0.196	0.411	0.431	1.01	0.186	0.388	0.225	0.664
CCOC1Oc2ccccc2C(=O)/C1=C/Nc1ccc(C(C)=O)cc1 (stereo not given)	23.9	62.3	26.7	72.6	26.7	68.1	19.1	43	40.6	> 100	15.9	68.3	18.5	40	18.6	44	27	72.6	22.8	> 100
Nc1nc(-n2c(-c3ccccc3)nc3c(Br)cc(Br)cc3c2=O)nnc1-c1cccc(Cl)c1Cl	11.2	34.8	5.15	> 100	24.1	> 100	4.65	28.3	8.65	46.7	6.05	> 100	2.84	9.8	12.2	40.2	14.5	58.1	2.43	7.06
C=CCOc1ccc2c(C)cc(=O)oc2c1C	–	58.5	–	> 100	–	> 100	–	> 100	–	> 100	–	> 100	–	> 100	–	> 100	–	63.9	–	> 100
C=CC(=O)Nc1cc(Nc2ncc(C(=O)OC(C)C)c(-c3cn(C)c4ccccc34)n2)c(OC)cc1N(C)CCN(C)C	5.11	10.6	3.25	8.88	7.45	29.5	1.78	3.21	1.93	10.3	2.86	14.6	7.13	22.8	0.0218	12.1	1.86	6.62	3.46	20
Cc1ccc(NC(=O)Nc2ccc(-c3cccnc3)cc2N2CCC(CO)CC2)cc1	2.53	> 100	2.52	> 100	6.31	> 100	1.68	3.27	1.26	5.03	3.02	14.3	2.41	> 100	6.68	> 100	2.18	4.69	1.78	11.4
NC(=O)NO.O.O.O.O.O.O.O.O.O.O.O.[Ge].[Ge].[Ge].[Ge].[Ge].[O]=[Ge].[O]=[Ge].[O]=[Ge].[O]=[Ge].[O]=[Ge][OH]	–	> 100	–	> 100	–	> 100	–	> 100	–	> 100	–	> 100	–	> 100	–	> 100	–	> 100	–	> 100
